Assay results reported in patent publication US20260335388A1, “COMBINATION THERAPIES WITH ONCOLYTIC ADENOVIRUS AND TOPOISOMERASE I INHIBITORS OR PRODRUGS THEREOF” (priority 2022, published 2026).
Where two headings read alike, the source gives them in different places.

How the values were obtained:
E2F-1, p21 and cyclin E1 = type: cell-based
E1A [1] = type: in vivo, mouse
E2F-1 and cyclin E1 = test: Immunoblot of E2F-1 and cyclin E1 in neuroblastoma and Ewing sarcoma cells; type: cell-based; details: in vitro, up to 48 h with topotecan (FIG. 24C)
[2] = tested on: recombinant hyaluronidase PH20 (SPAM1 gene); test: mRNA expression of recombinant hyaluronidase PH20 (SPAM1) in s.c. retinoblastomas; type: in vivo, mouse; details: 5 days, compared to […] (FIG. 18H)
Experimental: To quantify the recombinant PH20 hyaluronidase gene (SPAM1) in cultures and mouse tissues, the SYBR primer: Forward 5′-TACACACTCCTTGCTCCTGG-3′ (SEQ ID NO: 19), Reverse: 5′-CTTAGTCTCACAGAGGCCAC-3′ (SEQ ID NO: 20) (Bazan-Peregrino et al., “VCN-01 disrupts pancreatic cancer stroma and exerts antitumor effects,” Journal for ImmunoTherapy of Cancer 2021; 9(11):e003254) was used.
To establish s.c. tumors, 10^6 retinoblastoma cells suspended in 25 µL matrigel (Corning, Glendale, AZ, USA) were injected in athymic nude mice. Upon xenograft engraftment (tumor volumes ranging 100-200 mm^3), treatments were started. Mice received VCN-01 (3×10^9 vp in 20 µL vehicle, single intratumoral injection at day 1), alone or combined with one cycle of topotecan (0.6 mg/kg, intraperitoneal -i.p.-, daily at days 1-5), […] (40 mg/kg, i.p, one single dose at day 1), or hydroxyurea (200 mg/kg, i.p., daily at days 1-5). A group of mice received one intratumoral injection of the vehicle of VCN-01 (20 mM pH 8.0 tris buffer, 25 mM NaCl and 2.5% glycerol). Mice were sacrificed at 5 and 15 days after VCN-01 inoculation, the tumors were dissected and tumor homogenates were prepared by adding 10 μL of water per mg of tissue and homogenizing with a Bullet Blender turbine Storm 24 (Quasar instruments, Colorado Springs, CO, USA). In tumor homogenates, genome copies of VCN-01 were quantified. […]

Y79 cells = test: Viral production assay; type: cell-based; details: Y79 pre-infected with 500 MOI; topotecan 2 μM (FIG. 18F)
Experimental: Viral production assay. Y79 cells were infected with a concentration of 500 multiplicity of infection (MOI; i.e., transducing units of virus per cell), which was sufficient to achieve 80% to 100% infectivity. After 4 h, the cells were washed three times with PBS, fresh medium was added, and the cells were incubated with or without topotecan (2 μM). At time points 30, 48 and 72 h post-infection, the cell pellets were collected and exposed to three rounds of freeze-thaw lysis. Viral titers were determined in the pellets in triplicate, following an anti-hexon staining-based method in HEK293 cells (Cascallo et al., 2007).

[3] = tested on: HSJD-RBVS-10 retinoblastoma cells; test: cells; type: cell-based; details: Homo sapiens
Y79 xenografts = test: Ocular survival, Y79 intraocular xenografts (first study); type: in vivo, mouse; details: control 37 days; P vs control: combination 0.0005, topotecan 0.062, standard of care 0.674, VCN-01 1 (FIG. 20A)
Experimental: Antitumor activity in retinoblastoma. […] For ocular tumors, treatments were started at day 8 after inoculation (when tumors were appreciable by fundus examination).
In a first study, one dose of VCN-01 (3×10^8 vp in 2 μL vehicle, intravitreal, day 15), therapeutic schedules of topotecan or standard of care (SoC) retinoblastoma chemotherapy, or their combinations, was administered in the Y79 intraocular xenograft. For topotecan, mice received 0.6 mg/kg i.p. injections on days 8-12 and 29-33. […] 40 mg/kg, on days 8 and 29, and etoposide 6 mg/kg, on days 8-10 and 29-31.

Y79 tumors = type: in vivo, mouse; details: systemic drug after intratumoral VCN-01 3×10E^9 vp/tumor; 5 or 15 days (FIGS. 2A-B)
CDK6 = test: Cell cycle gene expression array, CDK6; type: cell-based, human; details: RBT-7 cells pre-infected with VCN-01; topotecan 2 μM (FIG. 17F)
Experimental: To assess the expression of genes involved in the cell cycle, 6-well culture plates containing 2×10^6 retinoblastoma cells were used. VCN-01 was added at 50 MOI for 48 h, followed by the addition of topotecan (2 μM), […] (12.5 μM) or culture medium. The cell pellets were collected 24 h later. The samples were plated in the TaqMan® Array of Human Cyclins & Cell Cycle Regulation (Thermo Fisher Scientific). This array contains 92 assays of cell cycle-associated genes and assays of GAPDH, 18S, HPRT1 and GUSB as endogenous control genes. the threshold cycle (Ct) value ≥35 was established as absence of expression. The mean expression value of the controls was used to normalize gene expression values. The thresholds for upregulation and downregulation were 2^−ΔΔCt≥2.0 and 2^−ΔΔct≤0.5, respectively (Livak and Schmittgen, “Analysis of relative gene expression data using real-time quantitative PCR and the 2 (−Delta Delta C(T)) Method,” Methods 2001; 25(4):402-8).
SYBR primers were CDKN1A (Forward 5′-GGACAGGAGAGGAAGACCATGT-3′ (SEQ ID NO: 15), Reverse 5′-TGGAGTGGTAGAATTCTGTCATGC-3′ (SEQ ID NO: 16) and CDK6 (Forward 5′-CCAGGCAGGCTTTTCATTCA-3′ (SEQ ID NO: 17), Reverse 5′-AGGTCCTGGAAGTATGGGTG-3′ (SEQ ID NO: 18).

E2F-1 = E2F-1 immunostaining in intraocular Y79 tumors; type: in vivo, mouse; details: mice with intraocular Y79 tumors, vs untreated (FIG. 17E)
[4] = tested on: HSJD-RBT-2 retinoblastoma cells; test: Antiproliferative activity (MTS), HSJD-RBT-2; type: cell-based; details: Homo sapiens
E1a [5] = type: cell-based
[6] = read-out: IC50, Topotecan single agent
[7] = read-out: IC50, Topotecan with VCN-01 (10 MOI)

With CC[C@@]1(O)C(=O)OCc2c1cc1n(c2=O)Cc2cc3c(CN(C)C)c(O)ccc3nc2-1 [Topotecan, topotecan] the “duration of E2F-1, p21 and cyclin E1 increase” value (E2F-1, p21 and cyclin E1; FIG. 17D) was “at least 48 h”, the “protein expression of E2F-1, p21 and cyclin E1” value (E2F-1, p21 and cyclin E1; Y79 cells (FIG. 17D)) was “increased protein expression of E2F-1, p21 and cyclin E1” and the “onset of E2F-1, p21 and cyclin E1 increase” value (E2F-1, p21 and cyclin E1; after exposure (FIG. 17D)) was 1 h. For the same compound, the “number of E1A-positive cells” value (E1A [1]; 5-day topotecan treatment, VCN-01-pretreated tumors, vs saline, […] or hydroxyurea (FIG. 18I)) was “highest number of E1A-positive cells”, the “level of E1A protein expression” value (E1A [1]; 5-day topotecan treatment, VCN-01-pretreated tumors, vs saline, […] or hydroxyurea (FIG. 18J)) was “highest level of E1A protein expression” and the “VCN-01 activity (E1A) in tumors” value (E1A [1]; systemic drug after intratumoral VCN-01, 5 or 15 days (FIGS. 4A-C)) was “enhances VCN-01 activity”. The “expression of E2F-1 and cyclin E1” value (E2F-1 and cyclin E1) was “overexpression of E2F-1 and cyclin E1”, the “expression of recombinant hyaluronidase” value [2] was “higher expression of recombinant hyaluronidase” and the viral production (Y79 cells) was “did not increase viral production”. For the same compound, the IC50 [3, 6] was 29.6 nM, the IC50 [3, 7] was 126 nM and the median ocular survival (Y79 xenografts) was 58 days. For the same compound, the “VCN-01 genome content in tumors” value (Y79 tumors) was “increases VCN-01 genome content”, the “decrease in expression of CDK6” value (CDK6) was 15 fold and the “E2F-1 expression in cancer cells” value (E2F-1) was “higher in the animals treated with topotecan”. The IC50 [4, 6] was 7.38 nM, the IC50 [4, 7] was 50.7 nM and the “expression of VCN-01 proteins (E1a)” value (E1a [5]; 4 retinoblastoma models, VCN-01 50 MOI, drug added at 24 h, lysis at 48 h (FIG. 1)) was “enhanced expression of VCN-01 proteins”. For the same compound, the “E1A expression in infected cells” value (E1a [5]; VCN-01 infected cells treated with drug (FIG. 13B, FIG. 15A)) was “highly overexpressed”.
